# Patent US10189854B2, “Substituted pyrimidine compounds” (Grünenthal GmbH, priority 2014, dated 2019)
# Where a name gives a salt, the structure may show the parent alone.
# Biological target: human PDE4B1 (Homo sapiens (Human), UniProt Q07343)
# Assay: TR-FRET assay using the LANCE Ultra cAMP kit to determine the activity of hPDE4B1
# Assay type: biochemical
# Conditions: IC50 inhibition of PDE4B, mean
# In short: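 Recombinant human PDE4B1 (Sf9-expressed, 0.96 U) incubated with compound and 500 nM cAMP in 50 mM Tris-HCl, 50 mM MgCl2, 5 mM DTT, pH 8.5, 30 min at room temperature. Residual cAMP read by TR-FRET (665/620 nm ratio) after IBMX stop. IC50 from ten-concentration curves as % inhibition of control.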
# Chain of human PDE4B1 (Q07343 whole entry): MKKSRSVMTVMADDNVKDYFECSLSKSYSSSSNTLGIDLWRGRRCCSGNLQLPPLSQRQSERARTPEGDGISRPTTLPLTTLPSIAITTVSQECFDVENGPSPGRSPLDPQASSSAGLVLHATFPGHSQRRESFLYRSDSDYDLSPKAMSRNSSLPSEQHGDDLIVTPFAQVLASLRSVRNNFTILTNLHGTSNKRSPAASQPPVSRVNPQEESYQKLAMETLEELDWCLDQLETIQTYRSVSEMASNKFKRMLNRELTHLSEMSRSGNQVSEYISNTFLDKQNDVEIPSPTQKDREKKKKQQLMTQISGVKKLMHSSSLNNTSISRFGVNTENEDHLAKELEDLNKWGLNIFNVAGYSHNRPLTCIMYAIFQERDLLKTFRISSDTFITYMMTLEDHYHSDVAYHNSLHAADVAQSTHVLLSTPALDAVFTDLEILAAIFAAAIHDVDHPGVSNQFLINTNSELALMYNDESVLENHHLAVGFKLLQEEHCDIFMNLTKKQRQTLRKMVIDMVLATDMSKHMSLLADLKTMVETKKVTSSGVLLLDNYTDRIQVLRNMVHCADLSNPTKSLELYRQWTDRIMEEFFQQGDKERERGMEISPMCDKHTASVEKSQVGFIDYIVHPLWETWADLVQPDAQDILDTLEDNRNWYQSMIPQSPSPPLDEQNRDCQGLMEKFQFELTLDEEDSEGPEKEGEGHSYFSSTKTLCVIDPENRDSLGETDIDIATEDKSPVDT
row,IC50,Compound
1,< 0.1 µM,"CC(C)c1ccnc(-c2cnc(N3CC4(CC4)c4ccc(C(=O)N5CC[C@@H](N)C5)cc43)nc2)c1 [Compound 331, [(3R)-3-Amino-pyrrolidin-1-yl]-[1-[5-(4-isopropyl-pyridin-2-yl)-pyrimidin-2-yl]-spiro[1,2-dihydro-indole-3,1′-cyclopropane]-6-yl]-methanone]"
2,0.1 to 1 µM,"O=C(c1ccc2c(c1)N(c1ncc(-c3ccccc3)cn1)CC21CC1)N1C[C@H]2C[C@@H]1CN2 [Compound 248, [(1R,4R)-2,5-Diazabicyclo[2.2.1]heptan-2-yl]-[1-(5-phenyl-pyrimidin-2-yl)-spiro[1,2-dihydro-indole-3,1′-cyclopropane]-6-yl]-methanone]"
3,< 0.1 µM,"O=C(c1ccc2c(c1)N(c1ncc(-c3ccccc3F)cn1)CC21CC1)N1CCO[C@H](CO)C1 [Compound 354, [1-[5-(2-Fluorophenyl)-pyrimidin-2-yl]-spiro[1,2-dihydro-indole-3,1′-cyclopropane]-6-yl]-[(2S)-2-(hydroxymethyl)-morpholin-4-yl]-methanone]"
4,< 0.1 µM,"CC(O)c1ccc(F)c(-c2cnc(N3CC4(CC4)c4ccc(C(=O)N(C)CCO)cc43)nc2)c1 (centres unmarked) [Compound 312, 1-[5-[2-Fluoro-5-(1-hydroxy-ethyl)-phenyl]-pyrimidin-2-yl]-N-(2-hydroxy-ethyl)-N-methyl-spiro[1,2-dihydro-indole-3,1′-cyclopropane]-6-carboxylic acid amide]"
5,< 0.1 µM,"CCOc1ccnc(-c2cnc(N3CC4(CC4)c4ccc(C(=O)N(C)CCO)cc43)nc2)c1 [Compound 257, 1-[5-(4-Ethoxy-pyridin-2-yl)-pyrimidin-2-yl]-N-(2-hydroxy-ethyl)-N-methyl-spiro[1,2-dihydro-indole-3,1′-cyclopropane]-6-carboxylic acid amide]"
6,< 0.1 µM,"Cc1cccc(-c2cnc(N3CC4(CC4)c4ccc(C(=O)N(C)CCO)cc43)nc2)n1 [Compound 234, N-(4-Hydroxy-ethyl)-N-methyl-1-[5-(6-methyl-pyridin-2-yl)-pyrimidin-2-yl]-spiro[1,2-dihydro-indole-3,1′-cyclopropane]-6-carboxylic acid amide]"
7,< 0.1 µM,"CN(CCO)C(=O)c1ccc2c(c1)N(c1ncc(-c3ccnc(F)c3)cn1)CC21CC1 [Compound 231, 1-[5-(2-Fluoro-pyridin-4-yl)-pyrimidin-2-yl]-N-(2-hydroxy-ethyl)-N-methyl-spiro[1,2-dihydro-indole-3,1′-cyclopropane]-6-carboxylic acid amide]"
8,< 0.1 µM,"CNC(=O)CN(C)C(=O)c1ccc2c(c1)N(c1ncc(-c3cc(C)ccn3)cn1)CC21CC1 [Compound 360, N-Methyl-N-(methylcarbamoyl-methyl)-1-[5-(4-methyl-pyridin-2-yl)-pyrimidin-2-yl]-spiro[1,2-dihydro-indole-3,1′-cyclopropane]-6-carboxylic acid amide]"
9,< 0.1 µM,"O=C1CN(C(=O)c2ccc3c(c2)N(c2ncc(-c4cc(O)ccn4)cn2)CC32CC2)CCN1 [Compound 265, 4-[1-[5-(4-Hydroxy-pyridin-2-yl)-pyrimidin-2-yl]-spiro[1,2-dihydro-indole-3,1′-cyclopropane]-6-carbonyl]-piperazin-2-one]"
10,< 0.1 µM,"O=C(c1ccc2c(c1)N(c1ncc(-c3cccc(F)c3)cn1)CC21CC1)N1CC2CC1CN2 (centres unmarked) [Compound 223, (2,5-Diazabicyclo[2.2.1]heptan-2-l)-[1-[5-(3-fluorophenyl)-pyrimidin-2-yl]-spiro[1,2-dihydro-indole-3,1′-cyclopropane]-6-yl]-methanone]"
11,< 0.1 µM,"Cc1cc(N)cc(-c2cnc(N3CC4(CC4)c4ccc(C(=O)N5CCOCC5)cc43)nc2)n1 [Compound 259, [1-[5-(4-Amino-6-methyl-pyridin-2-yl)-pyrimidin-2-yl]-spiro[1,2-dihydro-indole-3,1′-cyclopropane]-6-yl]-morpholin-4-yl-methanone]"
12,0.1 to 1 µM,"COc1cc(C2CC2)cc(-c2cnc(N3CC4(CC4)c4ccc(C(=O)N(C)CCO)cc43)nc2)n1 [Compound 361, 1′-(5-(4-cyclopropyl-6-methoxypyridin-2-yl)pyrimidin-2-yl)-N-(2-hydroxyethyl)-N-methylspiro[cyclopropane-1,3′-indoline]-6′-carboxamide]"
13,< 0.1 µM,"Cc1cnnc(-c2cnc(N3CC4(CC4)c4ccc(C(=O)N(C)CCO)cc43)nc2)c1 [Compound 290, N-(2-hydroxyethyl)-N-methyl-1′-(5-(5-methylpyridazin-3-yl)pyrimidin-2-yl)spiro[cyclopropane-1,3′-indoline]-6′-carboxamide]"
14,< 0.1 µM,"CN(CCO)C(=O)c1ccc2c(c1)N(c1ncc(-c3cccc(F)n3)cn1)CC21CC1 [Compound 230, 1-[5-(6-Fluoro-pyridin-2-yl)-pyrimidin-2-yl]-N-(2-hydroxy-ethyl)-N-methyl-spiro[1,2-dihydro-indole-3,1′-cyclopropane]-6-carboxylic acid amide]"

# Further lines, the compound ahead of its results:
row,Compound,IC50
1,"O=C(c1ccc2c(c1)N(c1ncc(-c3cc(C4CC4)ccn3)cn1)CC21CC1)N1CCC[C@@H](CO)C1 [Compound 336, [1-[5-(4-Cyclopropyl-pyridin-2-yl)-pyrimidin-2-yl]-spiro[1,2-dihydro-indole-3,1′-cyclopropane]-6-yl]-[(3R)-3-(hydroxymethyl)-piperidin-1-yl]-methanone]",< 0.1 µM
2,"N[C@@H]1CCN(C(=O)c2ccc3c(c2)N(c2ncc(-c4ccccn4)cn2)CC32CC2)C1 [Compound 329, [(3R)-3-Amino-pyrrolidin-1-yl]-[1-(5-pyridin-2-yl-pyrimidin-2-yl)-spiro[1,2-dihydro-indole-3,1′-cyclopropane]-6-yl]-methanone]",< 0.1 µM
3,"CN(CCO)C(=O)c1ccc2c(c1)N(c1ncc(-c3cc(C(C)(C)O)ccc3F)cn1)CC21CC1 [Compound 309, 1-[5-[2-Fluoro-5-(1-hydroxy-1-methyl-ethyl)-phenyl]-pyrimidin-2-yl]-N-(2-hydroxy-ethyl)-N-methyl-spiro[1,2-dihydro-indole-3,1′-cyclopropane]-6-carboxylic acid amide]",< 0.1 µM
4,"O=C(c1ccc2c(c1)N(c1ncc(-c3cccc(O)c3)cn1)CC21CC1)N1CC2CC1CN2 (centres unmarked) [Compound 250, (2,5-Diazabicyclo[2.2.1]heptan-2-yl)-[1-[5-(3-hydroxyphenyl)-pyrimidin-2-yl]-spiro[1,2-dihydro-indole-3,1′-cyclopropane]-6-yl]-methanone]",< 0.1 µM
5,CN(C)c1ccnc(-c2cnc(N3CC4(CC4)c4ccc(C(=O)N5CCNC(=O)C5)cc43)nc2)c1 [Compound 255],< 0.1 µM
6,"CN(CCO)C(=O)c1ccc2c(c1)N(c1ncc(-c3cccc(C4CC4)c3)cn1)CC21CC1 [Compound 267, 1-[5-(3-Cyclopropyl-phenyl)-pyrimidin-2-yl]-N-(2-hydroxy-ethyl)-N-methyl-spiro[1,2-dihydro-indole-3,1′-cyclopropane]-6-carboxylic acid amide]",< 0.1 µM
7,"CN(CCO)C(=O)c1ccc2c(c1)N(c1ncc(-c3cc(C(F)(F)F)ccc3F)cn1)CC21CC1 [Compound 365, 1-[5-[2-Fluoro-5-(trifluoromethyl)-phenyl]-pyrimidin-2-yl]-N-(2-hydroxy-ethyl)-N-methyl-spiro[1,2-dihydro-indole-3,1′-cyclopropane]-6-carboxylic acid amide]",< 0.1 µM
8,"O=C(c1ccc2c(c1)N(c1ncc(-c3ccccc3F)cn1)CC21CC1)N1CC[C@H](CO)C1 [Compound 310, [1-[5-(2-Fluorophenyl)-pyrimidin-2-yl]-spiro[1,2-dihydro-indole-3,1′-cyclopropane]-6-yl]-[(3S)-3-(hydroxymethyl)-pyrrolidin-1-yl]-methanone]",< 0.1 µM
9,"CC(=O)Nc1ccnc(-c2cnc(N3CC4(CC4)c4ccc(C(=O)N5CC6CC5CN6)cc43)nc2)c1 (centres unmarked) [Compound 279, N-(2-(2-(6′-(2,5-diazabicyclo[2.2.1]heptane-2-carbonyl)spiro[cyclopropane-1,3′-indolin]-1′-yl)pyrimidin-5-yl)pyridin-4-yl)acetamide.HCl]",< 0.1 µM
10,"CCNc1ccnc(-c2cnc(N3CC4(CC4)c4ccc(C(=O)N5CCOCC5)cc43)nc2)c1 [Compound 292, [1-[5-(4-Ethylamino-pyridin-2-yl)-pyrimidin-2-yl]-spiro[1,2-dihydro-indole-3,1′-cyclopropane]-6-yl]-morpholin-4-yl-methanone]",< 0.1 µM
11,"CN(CC(N)=O)C(=O)c1ccc2c(c1)N(c1ncc(-c3ccccc3F)cn1)CC21CC1 [Compound 256, N-(Carbamoyl-methyl)-1-[5-(2-fluorophenyl)-pyrimidin-2-yl]-N-methyl-spiro[1,2-dihydro-indole-3,1′-cyclopropane]-6-carboxylic acid amide]",< 0.1 µM
12,"CN(CCO)C(=O)c1ccc2c(c1)N(c1ncc(-c3cc(N)ccn3)cn1)CC21CC1 [Compound 251, 1-[5-(4-Amino-pyridin-2-yl)-pyrimidin-2-yl]-N-(2-hydroxy-ethyl)-N-methyl-spiro[1,2-dihydro-indole-3,1′-cyclopropane]-6-carboxylic acid amide]",< 0.1 µM
13,"CC(O)c1cccc(-c2cnc(N3CC4(CC4)c4ccc(C(=O)N(C)CCO)cc43)nc2)c1 (centres unmarked) [Compound 322, N-(2-Hydroxy-ethyl)-1-[5-[3-(1-hydroxy-ethyl)-phenyl]-pyrimidin-2-yl]-N-methyl-spiro[1,2-dihydro-indole-3,1′-cyclopropane]-6-carboxylic acid amide]",< 0.1 µM
14,"CN(CC(=O)O)C(=O)c1ccc2c(c1)N(c1ncc(-c3ccccc3F)cn1)CC21CC1 [Compound 245, 2-[[1-[5-(2-Fluorophenyl)-pyrimidin-2-yl]-spiro[1,2-dihydro-indole-3,1′-cyclopropane]-6-carbonyl]-methyl-amino]-acetic acid]",< 0.1 µM
15,"CC(CO)N(C)C(=O)c1ccc2c(c1)N(c1ncc(-c3ccccc3F)cn1)CC21CC1 (centres unmarked) [Compound 285, 1-[5-(2-Fluorophenyl)-pyrimidin-2-yl]-N-(2-hydroxy-1-methyl-ethyl)-N-methyl-spiro[1,2-dihydro-indole-3,1′-cyclopropane]-6-carboxylic acid amide]",< 0.1 µM
